Format in all cases: cell-based
In one test the test system is SnRK1A-GFP. Description: Cellular localization of SnRK1A-GFP in transfected barley aleurones (confocal microscopy). Conditions: 48 h; for % of total cells with SnRK1A-GFP in location [drawing 1] (nucleus) / % of total cells with SnRK1A-GFP in location [drawing 2] (cytoplasm) / Number of cells with SnRK1A-GFP in location [drawing 1] (nucleus) / Number of cells with SnRK1A-GFP in location [drawing 2] (cytoplasm): +ABA. As to the method: (§1) FIG. 10. ABA restricts SKINs, SnRK1A and MYBS1 in the cytoplasm under sugar starvation. Barley aleurones were co-transfected with indicated plasmid constructs and incubated in +S or −S medium with ABA (+ABA) or without ABA (−ABA) for 48 h. Thirty optical sections of 0.9-1.1 μm thickness were prepared for each cell and only five regularly spaced sections (sections 3, 9, 15, 21 and 27) are shown here. C and N indicate higher GFP signals, and c and n indicate lower GFP signals in the cytoplasm and nucleus, respectively. For more section images of each cell, see also FIG. 22 online. (A) Barley aleurones were transfected with Ubi:SKIN1-GFP, Ubi:SKIN2-GFP, Ubi:SnRK1A-GFP or Ubi:MYBS1-GFP alone. (B) Barley aleurones were transfected with Ubi.MYBS1-GFP alone (panel 1) or co-transfected with Ubi.MYBS1-GFP and Ubi:SnRK1A (panel 2), or with Ubi.MYBS1-GFP and Ubi:SnRK1A(Ri) (panel 3). (C) Barley aleurones were co-transfected with Ubi:SnRK1A-GFP and Ubi:SKIN(Ri). (D) Wild type rice (WT) or transgenic rice overexpression Ubi:SKIN(Ri) were transfected with Ubi:SnRK1A-GFP (panels 1-3) or Ubi.MYBS1-GFP (panels 4-6).
Detection of cellular localization of SKIN-GFP, SnRK1A-GFP and MYBS1-GFP fusion proteins were performed as described (Hong et al., 2012). Embryoless barley and rice seeds were sterilized with 1% NaOCl for 30 mins, and incubated in a buffer containing 20 mM CaCl2 and 20 mM sodium succinate, pH 5.0, for 4 days. Aleurone layers were isolated by scratching away starch in the endosperm with a razor blade. Four aleurone layers were arranged in a 10-cm dish for bombardment. Aleurone layers expressing GFP were examined with a Ziess confocal microscope (LSM510META) using a 488-nm laser line for excitation and a 515- to 560-nm long pass filter for emission.

A further test deals with MYBS1-GFP. In words: Cellular localization of MYBS1-GFP in transfected barley aleurones (confocal microscopy). To be noted: −S medium containing ABA, 48 h. As to the method:
as §1
Detection of cellular localization of SKIN-GFP, SnRK1A-GFP and MYBS1-GFP fusion proteins were performed as described (Hong et al., 2012). […]

Test [1] concerns interaction between SnRK1A and SKINs. Description: Rice embryo GAL4-UAS two-hybrid assay (luciferase). Conditions: rice embryos, −S medium containing 1 μM ABA. Here is the method:
FIG. 2. The N-terminus of SKIN interacts with the kinase domain of SnRK1A. For the GAL4-UAS two-hybrid assay, rice embryos were co-transfected with effector and reporter plasmids, incubated in −S medium for 24 h, and assayed for luciferase activity. The luciferase activity in rice embryos bombarded with effectors Ubi:GAD, Ubi:GBD and reporter 5XUAS-35S mp:Luc was set to 1×, and other values were calculated relative to this value. Error bars indicate the SE for three replicate experiments. Significance levels: * p<0.1, ** p<0.05. The Y axis indicates the relative luciferase activity with different constructs. (A) Plasmid constructs. (B) Rice embryos were co-transfected with effectors Ubi:GAD-SnRK1A and Ubi:GBD-SKIN (wild type or truncated) and reporter 5XUAS-35S mp:Luc. (C) Rice embryos were co-transfected with effectors Ubi:GAD-SnRK1A [wild type, kinase domain (KD) or regulatory (RD)], Ubi:GBD-SKIN and reporter 5XUAS-35S mp:Luc. (D) Rice embryos were co-transfected with effectors Ubi:GAD-SnRK1A and Ubi:GBD-SKIN and reporter 5XUAS-35S mp:Luc, and incubated in −S medium containing 1 μM ABA.
Rice embryos were prepared for particle bombardment as described (Chen et al., 2006). The rice embryos were bombarded with reporter, effectors and internal control at a ratio of 4:2:1 for single effector or 4:2:2:1 for two effectors. […]

Take `CC1=CC(=O)CC(C)(C)[C@@]1(O)/C=C/C(C)=C\C(=O)O` [ABA, abscisic acid]: in the test with SnRK1A-GFP (+S medium), the “% of total cells with SnRK1A-GFP in location [drawing 1] (nucleus)” value is on record as 15.8%, the “% of total cells with SnRK1A-GFP in location [drawing 2] (cytoplasm)” value is listed as 84.2%, the “Number of cells with SnRK1A-GFP in location [drawing 1] (nucleus)” value turned out to be 6 and the “Number of cells with SnRK1A-GFP in location [drawing 2] (cytoplasm)” value came to 32. For the same molecule, the “Localization of SnRK1A-GFP” value in the test with SnRK1A-GFP (−S medium containing ABA) is reported as “exclusively localized in the cytoplasm”. In the test on SnRK1A-GFP (−S medium), the “% of total cells with SnRK1A-GFP in location [drawing 1] (nucleus)” value amounted to 8.0%, the “% of total cells with SnRK1A-GFP in location [drawing 2] (cytoplasm)” value was determined as 92.0%, the “Number of cells with SnRK1A-GFP in location [drawing 1] (nucleus)” value turned out to be 7 and the “Number of cells with SnRK1A-GFP in location [drawing 2] (cytoplasm)” value amounted to 81. Besides, the “Localization of MYBS1-GFP” value in the test on MYBS1-GFP is listed as “exclusively localized in the cytoplasm”. Besides, in test [1], the “Effect on the interaction between SnRK1A and SKINs” value is “enhanced”.
